These results are taken from patent US20160108005A1, “TREATMENT OR PREVENTION OF DEPRESSION USING MENTHOL AND/OR ICILIN” (NESTEC S.A., priority 2013, published 2016).

Common to all, as to format: cell-based
For test [1], the system named is neocortex. The test can be described thus: action potential threshold in mouse brain slice recordings. The source says:
(§1) A mouse brain slice was used to study the effects of Menthol, Linalool (another transient receptor potential M8 (TRPM8) channel agonist) and Icilin. The amygdaloid complex is located within the medial temporal lobe in neocortex and amygdala. The lateral and basolateral nuclei of the amygdaloid complex receive sensory information from cortical and thalamic structures, process the information, and then transmit the information, either directly or through the basal nucleus, to the central nucleus. For experimental analysis of neuronal activity, synaptic responses from the basolateral complex can be evoked electrically using electrodes, and the action potentials can be measured.

Test [2] concerns Lateral Amygdala glutamatergic neuron (in a mouse brain slice). The test can be described thus: whole cell, current clamp recordings, 2.5 s square pulse at high depolarization (approximately −30 mV). The following applies: for inactivation of the sodium fast channels / neuronal firing: square pulse of 2.5 s at high depolarization of membrane potential (approximately −30 mV), relative to control, FIG. 2.
Description: as §1, with “measured. […] A square pulse of 2.5 s was applied at high depolarization of membrane potential (approximately −30 mV).” for “measured.”

Test [3] shares this test system. Nature of the test: whole cell, current clamp recordings with increasing concentration of gabazine (spontaneous action potential bursts). Particulars: Menthol 250 μM applied extracellularly 10 minutes previous to and during increasing concentrations of gabazine; FIG. 5 compared to FIG. 3.
Description: as §1, with “measured. […] As shown, neurons spontaneously present action potential bursts due to massive presynaptic discharges.” for “measured.”

Consider `O=C1NC(c2cccc([N+](=O)[O-])c2)=CCN1c1ccccc1O` [Icilin], for which, in test [1], the “amount of current required to trigger an action potential” value is reported as “increase the amount of current required to trigger an action potential” and the “threshold to trigger an action potential” value is recorded as “increase the threshold to trigger an action potential”. In addition, in test [2], the “action potentials at higher stimulation levels” value is listed as “abort action potentials at higher stimulation levels” and the “inactivation of the sodium fast channels / neuronal firing” value was “inactivation of the sodium fast channels happens sooner relative to control”.

In the case of `C=CC(C)(O)CCC=C(C)C` (stereo not shown) [Linalool], the “inactivation of the sodium fast channels / neuronal firing” value in test [2] is “inactivation of the sodium fast channels happens sooner relative to control”.

Take `CC1CCC(C(C)C)C(O)C1` (stereo not shown) [Menthol]: in test [1], the “amount of current required to trigger an action potential” value is “increase the amount of current required to trigger an action potential” and the “threshold to trigger an action potential” value is on record as “increase the threshold to trigger an action potential”. For the same compound, the “spontaneous action potential bursts” value in test [3] is reported as “complete absence or a strongly decreased presence of spontaneous bursts”. In test [2], the “action potentials at higher stimulation levels” value is recorded as “abort action potentials at higher stimulation levels” and the “inactivation of the sodium fast channels / neuronal firing” value is listed as “inactivation of the sodium fast channels happens sooner relative to control”.
